Reference: PMC8286840, “Identifying SARS-CoV-2 antiviral compounds by screening for small molecule inhibitors of Nsp3 papain-like protease” (Biochemical Journal, 2021)
Like-named read-outs stand apart in the source and are kept apart here.

Tests used:
[1] = target: T1, SARS-CoV-2 PLpro (nsp3 1564–1878) (Severe acute respiratory syndrome coronavirus 2, UniProt P0DTD1); assay: biochemical; set-up: FRET-quenched peptide (Pro3) cleavage by PLpro, 10 min pre-incubation, slope over 20 min, normalised to no-compound control; conditions: high concentration screen, read-out: % of control remaining
[2] = target: T1, SARS-CoV-2 PLpro (nsp3 1564–1878); assay: biochemical; set-up: FRET-quenched peptide (Pro3) cleavage by PLpro, 10 min pre-incubation, slope over 20 min, normalised to no-compound control; conditions: low concentration screen, read-out: % of control remaining

Compound `CCOC(=O)[C@]12CC1/C(=N\O)c1ccccc1O2` (mixture of isomers) [CPCCOEt] has a remaining activity at 3.75 µM ([1]; Well no.=286) of 99.4% and a remaining activity at 1.25 µM ([2]; Well no.=286) of 95.2%.

With `S=C(S)OC1CC2CC1C1CCCC21` (mixture of isomers) [D-609 potassium] the remaining activity at 3.75 µM ([1]; Well no.=1374) was 99% and the remaining activity at 1.25 µM ([2]; Well no.=1374) was 99.3%.

Work on `CCC(C)n1ncn(-c2ccc(N3CCN(c4ccc(OC[C@H]5CO[C@](Cn6cncn6)(c6ccc(Cl)cc6Cl)O5)cc4)CC3)cc2)c1=O` (mixture of isomers) [Itraconazole] yielded a remaining activity at 3.75 µM ([1]; Well no.=2228) of 94.2% and a remaining activity at 1.25 µM ([2]; Well no.=2228) of 96.3%.

`OC[C@H]1O[C@@H](O[C@@H]2[C@@H](CO)OC(O)(CO)[C@H]2O)[C@H](O)[C@@H](O)[C@H]1O` (mixture of isomers) [Lactulose] showed a remaining activity at 3.75 µM ([1]; Well no.=8140) of 97.6% and a remaining activity at 1.25 µM ([2]; Well no.=8140) of 95.7%.

Work on `CCCCC(C)(O)C/C=C/[C@H]1[C@H](O)CC(=O)[C@@H]1CCCCCCC(=O)OC` (mixture of isomers) [Misoprostol] yielded a remaining activity at 3.75 µM ([1]; Well no.=2194) of 98%, a remaining activity at 3.75 µM ([1]; Well no.=7473) of 103% and a remaining activity at 1.25 µM ([2]; Well no.=2194) of 99.5%. It also gave a remaining activity at 1.25 µM ([2]; Well no.=7473) of 104%.

With `CCCN(CCC)C1CCc2ccc(O)cc2C1` (racemic) the remaining activity at 3.75 µM ([1]; Well no.=662) was 94.8% and the remaining activity at 1.25 µM ([2]; Well no.=662) was 94.1%.

For `CC(N)c1cccc(Cl)c1Cl` (racemic), the remaining activity at 3.75 µM ([1]; Well no.=734) was 94.8% and the remaining activity at 1.25 µM ([2]; Well no.=734) was 92.1%.

For `C[C@@H]1O[C@H](C[N+](C)(C)C)C[C@H]1O` (racemic), the remaining activity at 3.75 µM ([1]; Well no.=1037) was 98.2% and the remaining activity at 1.25 µM ([2]; Well no.=1037) was 97.2%.

With `CCN1CCCC1CNC(=O)c1cc(S(N)(=O)=O)ccc1OC` (racemic) the remaining activity at 3.75 µM ([1]; Well no.=1174) was 106% and the remaining activity at 1.25 µM ([2]; Well no.=1174) was 105%.

With `NC(CCCCCP(=O)(O)O)C(=O)O` (racemic) the remaining activity at 3.75 µM ([1]; Well no.=17) was 97.5% and the remaining activity at 1.25 µM ([2]; Well no.=17) was 100%.

For `NC1CCN(O)C1=O` (racemic), the remaining activity at 3.75 µM ([1]; Well no.=250) was 103% and the remaining activity at 1.25 µM ([2]; Well no.=250) was 101%.

Work on `C=CCN1CCc2c(cc(O)c(O)c2Cl)C(c2ccccc2)C1` (racemic) yielded a remaining activity at 3.75 µM ([1]; Well no.=725) of 96.5% and a remaining activity at 1.25 µM ([2]; Well no.=725) of 96.8%.

`O=C1CCC(N2C(=O)c3ccccc3C2=O)C(=O)N1` (racemic) gave a remaining activity at 3.75 µM ([1]; Well no.=1282) of 105% and a remaining activity at 1.25 µM ([2]; Well no.=1282) of 107%.

With `CC1CCN=C(N)S1` (racemic) the remaining activity at 3.75 µM ([1]; Well no.=12) was 106% and the remaining activity at 1.25 µM ([2]; Well no.=12) was 105%.

With `CN(C)CCC(c1ccc(Br)cc1)c1ccccn1` (racemic) the remaining activity at 3.75 µM ([1]; Well no.=219) was 97.9% and the remaining activity at 1.25 µM ([2]; Well no.=219) was 97.7%.

`Cc1o[nH]c(=O)c1CC(N)C(=O)O` (racemic) gave a remaining activity at 3.75 µM ([1]; Well no.=508) of 100% and a remaining activity at 1.25 µM ([2]; Well no.=508) of 99.4%.

In the case of `NC(CCP(=O)(O)O)C(=O)O` (racemic), the remaining activity at 3.75 µM ([1]; Well no.=297) was 101% and the remaining activity at 1.25 µM ([2]; Well no.=297) was 102%.

`COc1cc(C(O)C(=O)O)ccc1O` (racemic) was tested, and the remaining activity at 3.75 µM ([1]; Well no.=606) was 97.2% and the remaining activity at 1.25 µM ([2]; Well no.=606) was 96%.

Compound `CCC1(c2ccc(N)cc2)CCC(=O)NC1=O` (racemic) has a remaining activity at 3.75 µM ([1]; Well no.=202) of 102% and a remaining activity at 1.25 µM ([2]; Well no.=202) of 100%.

`CC(C)NCC(O)c1ccc(NS(C)(=O)=O)cc1` (racemic) showed a remaining activity at 3.75 µM ([1]; Well no.=1212) of 103% and a remaining activity at 1.25 µM ([2]; Well no.=1212) of 105%.

`COc1cc(C(O)CN)ccc1O` (racemic) gave a remaining activity at 3.75 µM ([1]; Well no.=1049) of 96.1% and a remaining activity at 1.25 µM ([2]; Well no.=1049) of 96.5%.

`CN1CCN(C2Cc3ccccc3Sc3ccc(Cl)cc32)CC1` (racemic) showed a remaining activity at 3.75 µM ([1]; Well no.=804) of 105% and a remaining activity at 1.25 µM ([2]; Well no.=804) of 104%.

For `CC(C)(C)NCC(O)COc1cccc2[nH]c(=O)[nH]c12` (racemic), the remaining activity at 3.75 µM ([1]; Well no.=629) was 101% and the remaining activity at 1.25 µM ([2]; Well no.=629) was 101%.

`CC(C)Cc1ccc(C(C)C(=O)O)cc1` (racemic) showed a remaining activity at 3.75 µM ([1]; Well no.=1011) of 99.6% and a remaining activity at 1.25 µM ([2]; Well no.=1011) of 100%.

`N[C@H](C(=O)O)c1cccc(O)c1` (racemic) gave a remaining activity at 3.75 µM ([1]; Well no.=476) of 97% and a remaining activity at 1.25 µM ([2]; Well no.=476) of 101%.

Work on `NCC(O)c1ccc(O)cc1` (racemic) yielded a remaining activity at 3.75 µM ([1]; Well no.=1038) of 95.7% and a remaining activity at 1.25 µM ([2]; Well no.=1038) of 97.4%.

Compound `C[C@H](Nc1ccc(Cl)cc1)C(=O)O` (racemic) has a remaining activity at 3.75 µM ([1]; Well no.=230) of 97.1% and a remaining activity at 1.25 µM ([2]; Well no.=230) of 95.2%.

Compound `CNC[C@H](O)c1ccc(O)c(O)c1` (racemic) has a remaining activity at 3.75 µM ([1]; Well no.=605) of 99.2% and a remaining activity at 1.25 µM ([2]; Well no.=605) of 99.5%.

`NC(CCCP(=O)(O)O)C(=O)O` (racemic) showed a remaining activity at 3.75 µM ([1]; Well no.=65) of 97.5% and a remaining activity at 1.25 µM ([2]; Well no.=65) of 103%.

For `CC(C)(C)[C@]1(O)CCN2C[C@H]3c4ccccc4CCc4cccc(c43)[C@@H]2C1` (racemic), the remaining activity at 3.75 µM ([1]; Well no.=135) was 102% and the remaining activity at 1.25 µM ([2]; Well no.=135) was 101%.

`COc1cc(CC(C)N)c(OC)cc1I` (racemic) was tested, and the remaining activity at 3.75 µM ([1]; Well no.=686) was 92.3% and the remaining activity at 1.25 µM ([2]; Well no.=686) was 94.3%.

With `O=C(O)C1CCCNC1` (racemic) the remaining activity at 3.75 µM ([1]; Well no.=195) was 97.6% and the remaining activity at 1.25 µM ([2]; Well no.=195) was 102%.

`NCC(CC(=O)O)c1ccc(Cl)cc1` (racemic) showed a remaining activity at 3.75 µM ([1]; Well no.=31) of 97.2% and a remaining activity at 1.25 µM ([2]; Well no.=31) of 96.2%.

`CCCN(CCC)C1CCc2cccc(O)c2C1` (racemic) showed a remaining activity at 3.75 µM ([1]; Well no.=470) of 98.3% and a remaining activity at 1.25 µM ([2]; Well no.=470) of 99.9%.

For `COc1ccc(CCN(C)CCCC(C#N)(c2cc(OC)c(OC)c(OC)c2)C(C)C)cc1OC` (racemic), the remaining activity at 3.75 µM ([1]; Well no.=1026) was 98.1% and the remaining activity at 1.25 µM ([2]; Well no.=1026) was 94.4%.

Work on `COC(=O)C1=C(C)NC(C)=C([N+](=O)[O-])C1c1ccccc1C(F)(F)F` (racemic) yielded a remaining activity at 3.75 µM ([1]; Well no.=133) of 105% and a remaining activity at 1.25 µM ([2]; Well no.=133) of 108%.

`N[C@H](C(=O)O)c1cc(O)no1` (racemic) showed a remaining activity at 3.75 µM ([1]; Well no.=819) of 98.7% and a remaining activity at 1.25 µM ([2]; Well no.=819) of 98.4%.

`NC(CP(=O)(O)O)C(=O)O` (racemic) gave a remaining activity at 3.75 µM ([1]; Well no.=303) of 100% and a remaining activity at 1.25 µM ([2]; Well no.=303) of 99.2%.

Compound `CC(C)NCC(O)COc1ccc(CC(N)=O)cc1` (racemic) has a remaining activity at 3.75 µM ([1]; Well no.=196) of 99.1% and a remaining activity at 1.25 µM ([2]; Well no.=196) of 96.7%.

For `O=C(O)CCCCC1CCSS1` (racemic), the remaining activity at 3.75 µM ([1]; Well no.=1195) was 101% and the remaining activity at 1.25 µM ([2]; Well no.=1195) was 102%.

`CC1(NC(=O)CBr)CCC(C(C)(C)NCC(O)COc2cccc3[nH]ccc23)CC1` (racemic) was tested, and the remaining activity at 3.75 µM ([1]; Well no.=1215) was 102% and the remaining activity at 1.25 µM ([2]; Well no.=1215) was 99.4%.
